Assays:
[1] = test system: M receptors for serotonin; conditions: isolated rabbit vagus nerve; cited from earlier work
serotonin M receptor [2] = biological target: T1, serotonin M receptor (Oryctolagus cuniculus, UniProt A0A5F9C9J3); assay: inhibition of the effect of serotonin on the isolated rabbit heart; conditions: antagonism of serotonin, read-out: pA2 (converted)
T1 construct: isolated rabbit heart; from tissue; host or cells: isolated rabbit heart
T1 sequence (A0A5F9C9J3 1-494): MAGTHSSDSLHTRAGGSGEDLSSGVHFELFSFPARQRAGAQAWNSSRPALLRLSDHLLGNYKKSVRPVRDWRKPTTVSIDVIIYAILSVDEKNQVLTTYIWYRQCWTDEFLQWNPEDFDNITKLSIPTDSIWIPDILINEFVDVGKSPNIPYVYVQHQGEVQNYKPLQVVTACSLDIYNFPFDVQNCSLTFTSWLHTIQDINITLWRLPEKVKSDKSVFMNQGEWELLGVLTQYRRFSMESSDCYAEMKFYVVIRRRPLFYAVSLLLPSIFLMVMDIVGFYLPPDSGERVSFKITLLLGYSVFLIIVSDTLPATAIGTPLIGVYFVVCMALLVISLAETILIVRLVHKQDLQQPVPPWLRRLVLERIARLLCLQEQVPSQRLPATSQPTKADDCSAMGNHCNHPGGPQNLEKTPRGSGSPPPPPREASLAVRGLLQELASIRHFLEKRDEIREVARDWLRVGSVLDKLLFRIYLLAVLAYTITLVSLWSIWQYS
From the text: The serotonin M receptor antagonist activity is also indicated by inhibiting the effect of serotonin on the isolated rabbit heart according to the method of J.R.Fozard and A.T.Moborak Ali, European Journal of Pharmacology, (1978), 49, 109-112 at concentrations of 10^-11 to 10^-5 M of the compound of the invention. pD'2 or pA2 values may be calculated in the conventional manner.
The compounds of formula I may be administered in similar manner to known standards for use in these utilities. The suitable daily dosage for a particular compound will depend on a number of factors such as its relative potency of activity.

5-HT M-receptors = conditions: slow i.v. injection of 10 mg; cited from earlier work
serotonin M receptor [3] = conditions: blister base, forearm of human volunteers; cited from earlier work

For CCN(CC)C(=O)[C@@H]1C=C2c3cccc4[nH]c(Br)c(c34)C[C@H]2N(C)C1 [BOL--148], the “block of the action of serotonin on C fibre action potential amplitude” value (from here on “block of the action of serotonin”) [1] is given as “not blocked”.
With COC1CC2CC(OC(=O)c3c[nH]c4ccccc34)CC1N2C (stereo not drawn) [Example 2] the Kb (serotonin M receptor [2]) was 0.01 nM.
For CCN(CC)CCNC(=O)c1cc(Cl)c(N)cc1OC [Metoclopramide], the “effect on a migraine attack” value (5-HT M-receptors) is given as “immediate beneficial effect”.
In the case of CCN(CC)C(=O)[C@@H]1C=C2c3cccc4[nH]cc(c34)C[C@H]2N(C)C1 [lysergic acid diethylamide], the “inhibition of the algesic action of serotonin” value (serotonin M receptor [3]) is given as “not inhibited”.
In the case of CC[C@@H](CO)NC(=O)[C@@H]1C=C2c3cccc4c3c(cn4C)C[C@H]2N(C)C1 [methysergide], the “block of the action of serotonin” value [1] is listed as “not blocked”.
In the case of CSc1ccc2c(c1)C(N1CCN(C)CC1)Cc1ccccc1S2 (stereo not drawn) [metitepine], the “block of the action of serotonin” value [1] is given as “not blocked”.
